How the values were obtained:
Test in all cases: relative viability (nuclei count vs DMSO), 5 days (fraction); higher = more cells survive
IPA-3 + Bortezomib = compound: C1=CC=C2C(=C1)C=CC(=C2SSC3=C(C=CC4=CC=CC=C43)O)O [IPA-3] + CC(C)C[C@H](NC(=O)[C@H](Cc1ccccc1)NC(=O)c1cnccn1)B(O)O [Bortezomib] (partner 0.002 µM)
Procedure, shortened: (§1)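 After 5 days of treatment, lung cancer cells in 1536-well plates were fixed and stained in a single step (final 0.05% Triton X-100, 1% formaldehyde, 1 ug/ml Hoechst) and their nuclei counted on 4× images. Treatment had been applied by pin tool the day after seeding as one drug alone or as a fixed anchor-drug dose with five library-drug doses (not always all listed) in √10 steps. Relative viability is the nuclei count of treated wells divided by that of vehicle wells, and values are medians of duplicate plates.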

Doramapimod + Vorinostat = compound: Cc1ccc(-n2nc(C(C)(C)C)cc2NC(=O)Nc2ccc(OCCN3CCOCC3)c3ccccc23)cc1 [Doramapimod] + O=C(CCCCCCC(=O)Nc1ccccc1)NO [Vorinostat] (partner 1 µM)
Procedure, shortened: as §1

RAF265 + Tozasertib = compound: Cn1c(Nc2ccc(C(F)(F)F)cc2)nc2cc(Oc3ccnc(-c4ncc(C(F)(F)F)[nH]4)c3)ccc21 [RAF265] + Cc1cc(Nc2cc(N3CCN(C)CC3)nc(Sc3ccc(NC(=O)C4CC4)cc3)n2)n[nH]1 [Tozasertib] (partner 0.1 µM)
Procedure, shortened: as §1

RAF265 + Alpelisib = compound: Cn1c(Nc2ccc(C(F)(F)F)cc2)nc2cc(Oc3ccnc(-c4ncc(C(F)(F)F)[nH]4)c3)ccc21 [RAF265] + Cc1nc(NC(=O)N2CCC[C@H]2C(N)=O)sc1-c1ccnc(C(C)(C)C(F)(F)F)c1 [Alpelisib] (partner 2 µM)
Procedure, shortened: as §1

## UMC-11
IPA-3 + Bortezomib; first compound 0.2 µM
  relative viability: 0.923
IPA-3 + Bortezomib; first compound 0.6325 µM
  relative viability: 0.767
IPA-3 + Bortezomib; first compound 2 µM
  relative viability: 0.845
IPA-3 + Bortezomib; first compound 6.325 µM
  relative viability: 0.726
IPA-3 + Bortezomib; first compound 20 µM
  relative viability: 0.986
Doramapimod + Vorinostat; first compound 0.02 µM
  relative viability: 0.371
Doramapimod + Vorinostat; first compound 0.06325 µM
  relative viability: 0.33
Doramapimod + Vorinostat; first compound 0.2 µM
  relative viability: 0.423
Doramapimod + Vorinostat; first compound 0.6325 µM
  relative viability: 0.316
Doramapimod + Vorinostat; first compound 2 µM
  relative viability: 0.379
RAF265 + Tozasertib; first compound 0.01 µM
  relative viability: 0.191
RAF265 + Tozasertib; first compound 0.03162 µM
  relative viability: 0.212
RAF265 + Tozasertib; first compound 0.1 µM
  relative viability: 0.201
RAF265 + Tozasertib; first compound 0.3162 µM
  relative viability: 0.19
RAF265 + Tozasertib; first compound 1 µM
  relative viability: 0.174
RAF265 + Alpelisib; first compound 0.01 µM
  relative viability: 0.972
RAF265 + Alpelisib; first compound 0.03162 µM
  relative viability: 0.981
RAF265 + Alpelisib; first compound 0.1 µM
  relative viability: 0.969
RAF265 + Alpelisib; first compound 0.3162 µM
  relative viability: 1.14
RAF265 + Alpelisib; first compound 1 µM
  relative viability: 0.937

Reference: the supplement of paper PMC10307832
